The results in this text go back to patent US9943536B2, “Reactivation of HIV-1 gene expression to treat persistent HIV infection” (UNIVERSITÉ LIBRE DE BRUXELLES, priority 2011, dated 2018).

Where “and” joins values, the source holds several entries; their conditions need not be identical. Equal entries are not always repeated.

What all share (format): cell-based
Experiment [1] has as its system HIV-1 in HLA DR− CD25− CD69− CD4+ T cells from HIV-1-infected cART-treated patients. Description: HIV-1 recovery in resting memory (HLA DR− CD25− CD69−) CD4+ T cells from cART-treated patients. The following applies: for concentration of viral RNA in culture supernatants: HLA DR− CD25− CD69− CD4+ T cells, six days after treatment. On the procedure:
Further to Table 3: Cultures of patient cells were mock-treated or treated with indicated compounds. Six days after treatment, the concentration of viral RNA in culture supernatants was determined (in copies/ml; l means below the threshold and ‘/’ indicates an untested condition). Total HIV-1 DNA is expressed as HIV-1 DNA copies/10^6 cells or as log HIV-1 DNA copies/10^6 cells.
FIG. 3. […] Cultures of resting memory CD4^+ T cells were mock-treated or treated as indicated. Six days after treatment, the concentration of viral RNA in culture supernatants was measured (in copies/ml). […] The reactivated patient cultures were classified in relevant categories where HIV-1 recovery after the combined treatment presented a higher viral production than after the individual treatment. […] The reactivated patient cultures were subdivided in two relevant categories: (b1) cultures in which HIV-1 recovery after the combined treatment was higher than after the individual treatments, (b2) and cultures in which a synergistic reactivation of viral RNA production was observed after the combined treatments.
Table 4. […] Cultures of resting memory CD4^+ T cells were mock-treated or treated with BIX-01294. Six days after treatment, the concentration of viral RNA in culture supernatants was determined in copies/ml (l indicates below the threshold).
FIG. 4. […] Cultures of resting memory CD4^+ T cells were mock-treated or treated with BIX-01294 alone, with SAHA alone or with the combinationSAHA+BIX-01294. Six days after treatment, the concentration of viral RNA in culture supernatants was determined in copies/ml (I indicates below the threshold).
Cultures of 2.5×10^5 HLA DR^− CD 25 CD69^− CD4^+ T cells were mock-treated or treated with BIX-01294. Six days after treatment, the concentration of viral RNA in culture supernatants was determined (Table 4).

Experiment [2] has as its system HIV-1 in CD8+-depleted PBMCs from HIV-1-infected cART-treated patients. The experiment in a line: HIV-1 recovery in ex-vivo cultures of CD8+-depleted PBMCs from cART-treated patients. The following applies: for concentration of viral RNA in culture supernatants: six days after treatment. On the procedure:
Table 1. […] Cultures of CD8^+-depleted PBMCs were mock-treated or treated with chaetocin (30, 60 or 90 nmol/l) or with the positive control. Six days after treatment, the concentration of viral RNA in culture supernatants was determined (in copies/ml; ‘l’ indicates below the threshold).
(§1) (a) Cultures of CD8^+-depleted PBMCs were mock-treated or treated with chaetocin (90 nmol/l). Six days after treatment, the concentration of viral RNA in culture supernatants was determined. Total HIV-1 DNA is expressed as HIV-1 DNA copies/10^6 cells or as log HIV-1 DNA copies/10^6 cells (‘/’ indicates not-tested condition). (b) Limiting-dilution cultures of HLA DR^− CD4^+ T cells were mock-treated or treated with chaetocin (45 or 90 nmol/l). The concentration of viral RNA in culture supernatants was determined. The last positive dilution culture indicates the presence of at least one cell carrying replication-competent and chaetocin-responsive virus.
(§2) Cultures comprising 6.10^6 CD8^+-depleted PBMCs were mock-treated or treated with chaetocin. Six days after treatment, the concentration of viral RNA in culture supernatants was determined by the Amplicor method (Roche Diagnostics). The results are depicted in Table 1 and 2A. The percentage of reactivation was calculated on all patients reactivated. Nine out of the eighteen tested PBMC cultures reactivated HIV-1 expression in response to chaetocin treatment, while none of them did when mock-treated. Subsequently, limiting-dilution cultures of HLA DR^− CD4^+ T cells were performed and these cultures were mock-treated or treated with chaetocin. The last positive dilution culture indicates the presence of at least one cell carrying replication-competent HIV-1 virus. The concentration of viral RNA in culture supernatants was determined by the Amplicor method (Roche Diagnostics). Values are expressed in HIV-1 RNA copies/ml.

In experiment [3] the test system is HIV-1 in HLA DR− CD4+ T cells from HIV-1-infected cART-treated patients. The experiment in a line: HIV-1 recovery in limiting-dilution cultures of HLA DR− CD4+ T cells from cART-treated patients. The following applies: for concentration of viral RNA in culture supernatants: limiting dilution, one line per patient. On the procedure:
as §1, §2

Where [4] appears, read: one line per patient culture H19-H34 (Table 3), l = below the threshold.

For `COc1cc2nc(N3CCCN(C)CC3)nc(NC3CCN(Cc4ccccc4)CC3)c2cc1OC` [BIX-01294], the “% of reactivation” value in experiment [1] (10 patients (Table 4)) is 80%. Besides, the “concentration of viral RNA in culture supernatants” value (from here on “concentration of viral RNA”) was 412 copies/ml and 1 780 copies/ml and 1 360 copies/ml and 665 copies/ml and 1624 copies/ml and 1385 copies/ml and 250 copies/ml and 4292 copies/ml in experiment [1] (one line per patient culture (Table 4), I = below the threshold); 665 copies/ml and 1624 copies/ml and 1385 copies/ml and 250 copies/ml and 4292 copies/ml and 412 copies/ml and 1780 copies/ml and 1360 copies/ml in experiment [1] (setting [4]). Further, the “reactivated HIV-1 expression, share of resting CD4+ T-cell cultures” value in experiment [1] (cultures from HIV-1+ cART-treated patients (Table 4)) amounted to 80%. Besides, in experiment [1] (of 10 patients (Table 4)), the Reactivated patients was 8.

As to `CC(=O)O[C@@]12C[C@@H](C)[C@@]3(O)[C@@H](C=C(CO)C[C@]4(O)C(=O)C(C)=C[C@@H]34)[C@@H]1C2(C)C` [prostratin, 12-deoxyphorbol 13-acetate], the “concentration of viral RNA” value in experiment [1] (setting [4]) is 612 copies/ml and 1380 copies/ml and 1064 copies/ml and 2508 copies/ml and 2540 copies/ml and 3532 copies/ml and 704 copies/ml and 420 copies/ml.

As to `O=C(CCCCCCC(=O)Nc1ccccc1)NO` [SAHA, suberoylanilide hydroxamic acid], in experiment [1] (setting [4]), the “concentration of viral RNA” value was 624 copies/ml and 520 copies/ml and 252 copies/ml and 2248 copies/ml and 908 copies/ml and 952 copies/ml and 336 copies/ml and 540 copies/ml and 1480 copies/ml and 420 copies/ml and 416 copies/ml and 412 copies/ml.

`CN1C(=O)[C@@]23C[C@]4([C@]56C[C@@]78SS[C@@](CO)(C(=O)N7[C@H]5Nc5ccccc56)N(C)C8=O)c5ccccc5N[C@@H]4N2C(=O)[C@]1(CO)SS3` [chaetocin]: in experiment [2] (18 patients H1-H18, chaetocin 90 nmol/l or positive control), the “% of reactivation” value is listed as 50%. The “concentration of viral RNA” value in experiment [2] (CD8+-depleted PBMCs, one line per patient culture H1-H18 (Table 3), l = below the threshold) was 1825 copies/ml and 354 copies/ml and 2057 copies/ml and 2371 copies/ml and 1566 copies/ml and 797 copies/ml and 477 copies/ml and 2388 copies/ml and 467 copies/ml; in experiment [2] (chaetocin 30 nM, one line per patient culture, I = below the threshold), 1139 copies/ml; in experiment [2] (chaetocin 60 nM, one line per patient culture, I = below the threshold), 222 copies/ml and 452 copies/ml and 1924 copies/ml; in experiment [2] (chaetocin 90 nM, one line per patient culture, I = below the threshold), 2371 copies/ml and 1825 copies/ml and 354 copies/ml and 2057 copies/ml; in experiment [2] (chaetocin 90 nmol/l, one line per patient culture H1-H18, I = below the threshold), 2371 copies/ml and 1566 copies/ml and 797 copies/ml and 477 copies/ml and 2388 copies/ml and 467 copies/ml and 1825 copies/ml and 354 copies/ml and 2057 copies/ml; in experiment [3] (chaetocin 45 nM, 1.5 × 10^6 cells), 288 copies/ml and 831 copies/ml. Moreover, the “concentration of viral RNA” value is 179 copies/ml and 245 copies/ml and 89 copies/ml and 97 copies/ml and 769 copies/ml in experiment [3] (chaetocin 45 nM, 5 × 10^5 cells); 83 copies/ml and 238 copies/ml in experiment [3] (chaetocin 45 nM, 10^5 cells); 284 copies/ml and 94 copies/ml and 292 copies/ml and 702 copies/ml in experiment [3] (chaetocin 45 nM, 10^6 cells); 377 copies/ml and 1050 copies/ml in experiment [3] (chaetocin 90 nM, 1.5 × 10^6 cells); 76 copies/ml in experiment [3] (chaetocin 90 nM, 5 × 10^4 cells); 147 copies/ml and 118 copies/ml and 68 copies/ml and 52 copies/ml and 1043 copies/ml in experiment [3] (chaetocin 90 nM, 5 × 10^5 cells). Also, the “concentration of viral RNA” value in experiment [3] (chaetocin 90 nM, 10^5 cells) was 51 copies/ml and 50 copies/ml and 47 copies/ml and 359 copies/ml; in experiment [3] (chaetocin 90 nM, 10^6 cells), 178 copies/ml and 131 copies/ml and 791 copies/ml; in experiment [1] (setting [4]), 832 copies/ml and 180 copies/ml and 2780 copies/ml and 1244 copies/ml and 1616 copies/ml and 2000 copies/ml and 680 copies/ml and 4944 copies/ml and 300 copies/ml and 328 copies/ml and 2456 copies/ml and 1000 copies/ml. Also, the Reactivated patients in experiment [2] (chaetocin 30 nM, of 6 patients H1-H6) worked out at 1; in experiment [2] (chaetocin 60 nM, of 6 patients H1-H6), 3; in experiment [2] (chaetocin 90 nM, of 6 patients H1-H6), 4; in experiment [2] (of 18 patients H1-H18, chaetocin 90 nmol/l or positive control), 9. Moreover, the “HIV-1 recovery, share of CD8+-depleted PBMCs cultures” value in experiment [2] (cultures from HIV-1+ cART-treated patients (Table 2a)) was 50%. Besides, in experiment [3] (cultures from HIV-1+ cART-treated patients (Table 2b)), the “HIV-1 recovery, share of resting CD4+ T-cell cultures” value amounted to 86%.
